System: MV-4-11 cells
Assay: Gene expression microarray analysis (Affymetrix PrimeView) and GSEA
Assay type: cell-based, human
Design: RFU PODN (11730768_x_at) / Fold change /veh PODN (11730768_x_at) / RFU LINC00158 (11744669_a_at) / Fold change /veh LINC00158 (11744669_a_at) / RFU DUSP10 (11751237_a_at) / Fold change /veh DUSP10 (11751237_a_at) / RFU ID3 (11757404_x_at) / Fold change /veh ID3 (11757404_x_at) / RFU PLEKHG5 (11737974_s_at) / Fold change /veh PLEKHG5 (11737974_s_at) / RFU LRRC4B (11730491_at) / Fold change /veh LRRC4B (11730491_at) / RFU GIMAP4 (11747438_a_at) / Fold change /veh GIMAP4 (11747438_a_at) / RFU KRT8 (11758183_x_at) / Fold change /veh KRT8 (11758183_x_at) / RFU CNN1 (11734310_a_at) / Fold change /veh CNN1 (11734310_a_at) / RFU VPS37D (11726825_at) / Fold change /veh VPS37D (11726825_at) / RFU C10orf10 (11716522_x_at) / Fold change /veh C10orf10 (11716522_x_at) / RFU KIR2DL2 /// KIR2DL4 /// KIR2DL5A /// KIR2DL5B /// KIR2DS1 /// KIR2DS2 /// KIR2DS3 /// KIR2DS4 /// KIR3DL3 /// KIR3DL3 /// KIR3DS1 (11738374_at) / Fold change /veh KIR2DL2 /// KIR2DL4 /// KIR2DL5A /// KIR2DL5B /// KIR2DS1 /// KIR2DS2 /// KIR2DS3 /// KIR2DS4 /// KIR3DL3 /// KIR3DL3 /// KIR3DS1 (11738374_at) / RFU C1QL1 (11718748_at) / Fold change /veh C1QL1 (11718748_at) / RFU TMPRSS4 (11747572_a_at) / Fold change /veh TMPRSS4 (11747572_a_at) / RFU HAMP (11756126_x_at) / Fold change /veh HAMP (11756126_x_at) / RFU RNFT2 (11725882_a_at) / Fold change /veh RNFT2 (11725882_a_at) / RFU NR4A2 (11747474_a_at) / Fold change /veh NR4A2 (11747474_a_at) / RFU ABCC12 (11746883_a_at) / Fold change /veh ABCC12 (11746883_a_at) / RFU TMEM136 (11760407_x_at) / Fold change /veh TMEM136 (11760407_x_at) / RFU CLDN22 /// WWC2 (11732394_at) / Fold change /veh CLDN22 /// WWC2 (11732394_at) / RFU HLA-DPB1 (11760878_x_at) / Fold change /veh HLA-DPB1 (11760878_x_at) / RFU SPINT1 (11716480_a_at) / Fold change /veh SPINT1 (11716480_a_at) / RFU GAP43 (11754022_s_at) / Fold change /veh GAP43 (11754022_s_at) / RFU A4GNT (11735810_at) / Fold change /veh A4GNT (11735810_at) / RFU PRB3 (11715151_x_at) / Fold change /veh PRB3 (11715151_x_at) / RFU TUBB4B (11761932_at) / Fold change /veh TUBB4B (11761932_at) / RFU CAPN14 (11732068_a_at) / Fold change /veh CAPN14 (11732068_a_at) / RFU TMCC2 (11721928_a_at) / Fold change /veh TMCC2 (11721928_a_at) / RFU IRGQ (11745062_a_at) / Fold change /veh IRGQ (11745062_a_at) / RFU FAM174B (11720279_a_at) / Fold change /veh FAM174B (11720279_a_at) / RFU TMPRSS4 (11748680_a_at) / Fold change /veh TMPRSS4 (11748680_a_at) / RFU FAM212B (11763350_a_at) / Fold change /veh FAM212B (11763350_a_at) / RFU PLEKHG5 (11743358_a_at) / Fold change /veh PLEKHG5 (11743358_a_at) / RFU ZSCAN30 (11745921_a_at) / Fold change /veh ZSCAN30 (11745921_a_at) / RFU CMKLR1 (11741424_a_at) / Fold change /veh CMKLR1 (11741424_a_at) / RFU LOC101060620 /// MAPK8IP1 (11723275_at) / Fold change /veh LOC101060620 /// MAPK8IP1 (11723275_at) / RFU SPTSSB (11747773_x_at) / Fold change /veh SPTSSB (11747773_x_at) / RFU PRSS12 (11739890_at) / Fold change /veh PRSS12 (11739890_at) / RFU BIN1 (11741810_x_at) / Fold change /veh BIN1 (11741810_x_at) / RFU WNT11 (11732464_a_at) / Fold change /veh WNT11 (11732464_a_at) / RFU C10orf10 (11716521_a_at) / Fold change /veh C10orf10 (11716521_a_at) / RFU C5orf56 (11738089_at) / Fold change /veh C5orf56 (11738089_at) / RFU CYB561 (11721691_x_at) / Fold change /veh CYB561 (11721691_x_at) / RFU ANKRD19P (11752326_a_at) / Fold change /veh ANKRD19P (11752326_a_at) / RFU OR2T12 /// OR2T33 /// OR2T8 (11738714_s_at) / Fold change /veh OR2T12 /// OR2T33 /// OR2T8 (11738714_s_at) / RFU VCAN (11748164_a_at) / Fold change /veh VCAN (11748164_a_at) / RFU JSRP1 (11732532_at) / Fold change /veh JSRP1 (11732532_at) / RFU KRTAP10-11 (11738290_x_at) / Fold change /veh KRTAP10-11 (11738290_x_at) / RFU MYO3A (11730013_a_at) / Fold change /veh MYO3A (11730013_a_at) / RFU EBF3 (11725865_a_at) / Fold change /veh EBF3 (11725865_a_at) / RFU CAMK2N1 (11719241_x_at) / Fold change /veh CAMK2N1 (11719241_x_at) / RFU C5orf56 (11738088_a_at) / Fold change /veh C5orf56 (11738088_a_at) / RFU OLFML3 (11715873_a_at) / Fold change /veh OLFML3 (11715873_a_at) / RFU LOC100653217 /// NTM (11731650_a_at) / Fold change /veh LOC100653217 /// NTM (11731650_a_at) / RFU MAPK11 (11762145_a_at) / Fold change /veh MAPK11 (11762145_a_at) / RFU FIZ1 (11724087_x_at) / Fold change /veh FIZ1 (11724087_x_at) / RFU OASL (11726364_x_at) / Fold change /veh OASL (11726364_x_at) / RFU SOX15 (11748057_x_at) / Fold change /veh SOX15 (11748057_x_at) / RFU CD79A (11719716_a_at) / Fold change /veh CD79A (11719716_a_at) / RFU HIST1H1D (11736915_at) / Fold change /veh HIST1H1D (11736915_at) / RFU CASKIN2 (11723855_a_at) / Fold change /veh CASKIN2 (11723855_a_at) / RFU LOC730098 (11760151_x_at) / Fold change /veh LOC730098 (11760151_x_at) / RFU OR4N2 (11742367_at) / Fold change /veh OR4N2 (11742367_at) / RFU PRRT2 (11749266_a_at) / Fold change /veh PRRT2 (11749266_a_at) / RFU SNX32 (11753110_a_at) / Fold change /veh SNX32 (11753110_a_at) / RFU CDHR5 (11726645_a_at) / Fold change /veh CDHR5 (11726645_a_at) / RFU RCAN1 (11760418_a_at) / Fold change /veh RCAN1 (11760418_a_at) / RFU FAM167A (11723789_a_at) / Fold change /veh FAM167A (11723789_a_at) / RFU FAM26E (11764081_at) / Fold change /veh FAM26E (11764081_at) / RFU ISYNA1 (11749810_s_at) / Fold change /veh ISYNA1 (11749810_s_at) / RFU ACY1 (11761880_at) / Fold change /veh ACY1 (11761880_at) / RFU 11764098_at / Fold change /veh 11764098_at / RFU SAMD14 (11745864_x_at) / Fold change /veh SAMD14 (11745864_x_at) / RFU NPB (11741838_a_at) / Fold change /veh NPB (11741838_a_at) / RFU TMPRSS6 (11731388_a_at) / Fold change /veh TMPRSS6 (11731388_a_at) / RFU KRTAP10-2 (11738614_at) / Fold change /veh KRTAP10-2 (11738614_at) / RFU ARHGAP8 /// PRR5-ARHGAP8 (11727945_x_at) / Fold change /veh ARHGAP8 /// PRR5-ARHGAP8 (11727945_x_at) / RFU KRTAP5-7 /// NADSYN1 (11734609_at) / Fold change /veh KRTAP5-7 /// NADSYN1 (11734609_at) / RFU RASL12 (11751679_a_at) / Fold change /veh RASL12 (11751679_a_at) / RFU CDKN2B (11736163_a_at) / Fold change /veh CDKN2B (11736163_a_at) / RFU PRF1 (11729649_at) / Fold change /veh PRF1 (11729649_at) / RFU, ZNF638 /// ZNF638-IT1 / Fold change vs veh, ZNF638 /// ZNF638-IT1 / RFU, PANK3 / Fold change vs veh, PANK3 / RFU, SH3YL1 / Fold change vs veh, SH3YL1 / RFU, ZEB2 / Fold change vs veh, ZEB2 / RFU, NRIP1 / Fold change vs veh, NRIP1 / RFU, PTTG1IP / Fold change vs veh, PTTG1IP / RFU, CAPN2 / Fold change vs veh, CAPN2 / RFU, MED14 / Fold change vs veh, MED14 / RFU, SNORA58 / Fold change vs veh, SNORA58 / RFU, C1orf63 / Fold change vs veh, C1orf63 / RFU, LRRFIP1 / Fold change vs veh, LRRFIP1 / RFU, NDUFAF7 / Fold change vs veh, NDUFAF7 / RFU, SLC12A2 / Fold change vs veh, SLC12A2 / RFU, IBTK / Fold change vs veh, IBTK / RFU, ESF1 / Fold change vs veh, ESF1 / Fold change vs veh, TMEM50B / RFU, TAOK1 / Fold change vs veh, TAOK1 / RFU, ACBD3 / Fold change vs veh, ACBD3 / RFU, TMA16 / Fold change vs veh, TMA16 / RFU, RWDD3 / Fold change vs veh, RWDD3 / RFU, BCAT1 / Fold change vs veh, BCAT1 / RFU, EDEM3 / Fold change vs veh, EDEM3 / RFU, TMEM33 / Fold change vs veh, TMEM33 / RFU, WDR75 / Fold change vs veh, WDR75 / RFU, AHCTF1 / Fold change vs veh, AHCTF1 / RFU, TFRC / Fold change vs veh, TFRC / RFU, ZDHHC17 / Fold change vs veh, ZDHHC17 / RFU, NOM1 / Fold change vs veh, NOM1 / RFU, ARL8B / Fold change vs veh, ARL8B / RFU, ZBTB11 / Fold change vs veh, ZBTB11 / RFU, TAMM41 / Fold change vs veh, TAMM41 / RFU, KIAA1704 /// LOC100996395 / Fold change vs veh, KIAA1704 /// LOC100996395 / RFU, ING1 / Fold change vs veh, ING1 / RFU, TRMT61B / Fold change vs veh, TRMT61B / RFU, FUBP3 / Fold change vs veh, FUBP3 / RFU, TP53 / Fold change vs veh, TP53 / RFU, TNKS2 / Fold change vs veh, TNKS2 / RFU, ZFP14 / Fold change vs veh, ZFP14 / RFU, ACTR2 / Fold change vs veh, ACTR2 / RFU, PPP3R1 / Fold change vs veh, PPP3R1 / RFU, PIK3R1 / Fold change vs veh, PIK3R1 / RFU, HNRNPA1 / Fold change vs veh, HNRNPA1 / RFU, RNF170 / Fold change vs veh, RNF170 / RFU, ZNF28 / Fold change vs veh, ZNF28 / RFU, RNGTT / Fold change vs veh, RNGTT / RFU, OGT / Fold change vs veh, OGT / RFU, BRD1 / Fold change vs veh, BRD1 / RFU, MARS / Fold change vs veh, MARS / RFU, ZNF655 / Fold change vs veh, ZNF655 / RFU, FAHD1 / Fold change vs veh, FAHD1 / RFU, BDP1 / Fold change vs veh, BDP1 / RFU, LRRCC1 / Fold change vs veh, LRRCC1 / RFU, ARID1A / Fold change vs veh, ARID1A / RFU, ZNF146 / Fold change vs veh, ZNF146 / RFU, ZNF330 / Fold change vs veh, ZNF330 / RFU, GPN3 / Fold change vs veh, GPN3 / RFU, C9orf123 / Fold change vs veh, C9orf123 / RFU, N4BP2L2 / Fold change vs veh, N4BP2L2 / RFU, ARFIP1 / Fold change vs veh, ARFIP1 / RFU, FAM179B / Fold change vs veh, FAM179B / RFU, BCL10 / Fold change vs veh, BCL10 / RFU, UHRF1BP1L / Fold change vs veh, UHRF1BP1L / RFU, BET1 / Fold change vs veh, BET1 / RFU, CNOT2 / Fold change vs veh, CNOT2 / RFU, ZNF268 / Fold change vs veh, ZNF268 / Fold change vs veh, ZNF507 / RFU, DGCR2 / Fold change vs veh, DGCR2 / RFU, WDSUB1 / Fold change vs veh, WDSUB1 / Fold change vs veh, HSP90B1 /// MIR3652 / RFU, ADSS / Fold change vs veh, ADSS / RFU, GK / Fold change vs veh, GK / RFU, ZNF148 / Fold change vs veh, ZNF148 / RFU, TAF9 / Fold change vs veh, TAF9 / RFU, SLC1A5 / Fold change vs veh, SLC1A5 / RFU, SLMO2 / Fold change vs veh, SLMO2 / RFU, ABCC4 / Fold change vs veh, ABCC4 / RFU, LOC101060439 /// RAP1B / Fold change vs veh, LOC101060439 /// RAP1B / RFU, RFX7 / Fold change vs veh, RFX7 / RFU, GTPBP10 / Fold change vs veh, GTPBP10 / RFU, CNEP1R1 / Fold change vs veh, CNEP1R1 / RFU, BIVM-ERCC5 /// ERCC5 / Fold change vs veh, BIVM-ERCC5 /// ERCC5 / RFU, ILF3 / Fold change vs veh, ILF3 / RFU 11762660_at / Fold change /veh 11762660_at / RFU VCAN (11757783_s_at) / Fold change /veh VCAN (11757783_s_at) / RFU DDX43 (11728927_at) / Fold change /veh DDX43 (11728927_at) / RFU KRT8 (11758188_x_at) / Fold change /veh KRT8 (11758188_x_at) / RFU NKD1 (11759106_at) / Fold change /veh NKD1 (11759106_at) / RFU SRD5A1 (11742802_a_at) / Fold change /veh SRD5A1 (11742802_a_at) / RFU TPSAB1 /// TPSB2 (11721975_s_at) / Fold change /veh TPSAB1 /// TPSB2 (11721975_s_at) / RFU GSTM3 (11746129_a_at) / Fold change /veh GSTM3 (11746129_a_at) / RFU IL23R (11737362_x_at) / Fold change /veh IL23R (11737362_x_at) / RFU TMEM51 (11727254_a_at) / Fold change /veh TMEM51 (11727254_a_at) / RFU PIWIL2 (11732686_x_at) / Fold change /veh PIWIL2 (11732686_x_at) / RFU ORM1 (11744905_x_at) / Fold change /veh ORM1 (11744905_x_at) / RFU CCDC152 (11743942_at) / Fold change /veh CCDC152 (11743942_at) / RFU ECM1 (11717891_a_at) / Fold change /veh ECM1 (11717891_a_at) / RFU IL23R (11748794_a_at) / Fold change /veh IL23R (11748794_a_at) / RFU TNFAIP8L3 (11732012_x_at) / Fold change /veh TNFAIP8L3 (11732012_x_at) / RFU MBOAT4 (11741988_at) / Fold change /veh MBOAT4 (11741988_at) / RFU 11764193_at / Fold change /veh 11764193_at / RFU TMEM53 (11763286_at) / Fold change /veh TMEM53 (11763286_at) / RFU MAGEB2 (11727129_at) / Fold change /veh MAGEB2 (11727129_at) / RFU TMEM200A (11744735_a_at) / Fold change /veh TMEM200A (11744735_a_at) / RFU CCDC152 (11751479_a_at) / Fold change /veh CCDC152 (11751479_a_at) / RFU FAM211A (11726209_a_at) / Fold change /veh FAM211A (11726209_a_at) / RFU RGS16 (11746705_a_at) / Fold change /veh RGS16 (11746705_a_at) / RFU VCAN (11755009_s_at) / Fold change /veh VCAN (11755009_s_at) / RFU RHOB (11743442_s_at) / Fold change /veh RHOB (11743442_s_at) / RFU RGS16 (11720943_a_at) / Fold change /veh RGS16 (11720943_a_at) / RFU RGS16 (11720944_at) / Fold change /veh RGS16 (11720944_at) / RFU, VPS4B / Fold change vs veh, VPS4B / RFU, CREB1 / Fold change vs veh, CREB1 / RFU, DNAJC13 / Fold change vs veh, DNAJC13 / RFU, GNAQ / Fold change vs veh, GNAQ / RFU, CDK5R1 / Fold change vs veh, CDK5R1 / RFU, ZRANB3 / Fold change vs veh, ZRANB3 / RFU, CUL4A / Fold change vs veh, CUL4A / RFU, CCNY / Fold change vs veh, CCNY / RFU, UFL1 / Fold change vs veh, UFL1 / RFU, COG3 / Fold change vs veh, COG3 / RFU, DIAPH2 / Fold change vs veh, DIAPH2 / RFU, SKA2 / Fold change vs veh, SKA2 / RFU, AFF3 / Fold change vs veh, AFF3 / RFU, LMF1 / Fold change vs veh, LMF1 / RFU, IPO11 / Fold change vs veh, IPO11 / RFU, DFFB / Fold change vs veh, DFFB / RFU, FOXP1 / Fold change vs veh, FOXP1 / RFU, CARD8 / Fold change vs veh, CARD8 / RFU, STRN3 / Fold change vs veh, STRN3 / RFU, ADK / Fold change vs veh, ADK / RFU, RASSF2 / Fold change vs veh, RASSF2 / RFU, WIPF1 / Fold change vs veh, WIPF1 / RFU, LARP1B / Fold change vs veh, LARP1B / RFU, RASA1 / Fold change vs veh, RASA1 / RFU, RB1 / Fold change vs veh, RB1 / RFU, PPFIA1 / Fold change vs veh, PPFIA1 / RFU, MAT2A / Fold change vs veh, MAT2A / RFU, CCT5 / Fold change vs veh, CCT5 / RFU, WDR92 / Fold change vs veh, WDR92 / RFU, CUX1 / Fold change vs veh, CUX1 / RFU, TTC7A / Fold change vs veh, TTC7A / RFU, TMEM135 / Fold change vs veh, TMEM135 / RFU, DEPTOR / Fold change vs veh, DEPTOR / RFU, CPM / Fold change vs veh, CPM / RFU, DNAJB6 / Fold change vs veh, DNAJB6 / RFU, CACNA2D3 / Fold change vs veh, CACNA2D3 / RFU, DTX4 / Fold change vs veh, DTX4 / RFU, TFCP2 / Fold change vs veh, TFCP2 / RFU, GMCL1 /// GMCL1P1 / Fold change vs veh, GMCL1 /// GMCL1P1 / RFU, AEBP2 / Fold change vs veh, AEBP2 / RFU, SNHG1 /// SNORD22 /// SNORD25 /// SNORD26 /// SNORD27 /// SNORD28 /// SNORD29 /// SNORD31 / Fold change vs veh, SNHG1 /// SNORD22 /// SNORD25 /// SNORD26 /// SNORD27 /// SNORD28 /// SNORD29 /// SNORD31 / Fold change (Aza/veh), C12orf56 (ProbeSet 11735607_a_at) / Fold change (ACY-1035/veh), C12orf56 (ProbeSet 11735607_a_at) / Fold change (Aza/veh), FGFR1OP (ProbeSet 11751329_s_at) / Fold change (ACY-1035/veh), FGFR1OP (ProbeSet 11751329_s_at) / Fold change (Aza/veh), VPS36 (ProbeSet 11739960_a_at) / Fold change (ACY-1035/veh), VPS36 (ProbeSet 11739960_a_at) / RFU SYPL1 (11715823_x_at) / Fold change /veh SYPL1 (11715823_x_at) / RFU IGFBP7 (11715501_s_at) / Fold change /veh IGFBP7 (11715501_s_at) / RFU REEP3 (11722064_at) / Fold change /veh REEP3 (11722064_at) / RFU IGLL1 (11728026_x_at) / Fold change /veh IGLL1 (11728026_x_at): dose or concentration left out as unconfirmed
Settings: MV-4-11 cells, 48 hours

For `Nc1ccc(-c2cccs2)cc1NC(=O)c1ccc2c(c1)cc(C1CC1)n2CCN1CCOCC1` [ACY-1035], the “RFU MBOAT4 (11741988_at)” value was 8.81 RFU.
